Calls of active or inactive are those of the source. No cut-off for these calls is given here. Peptide text beside a SMILES is read from it. * marks the point of attachment. X1 = CC(=O)N[C@H]1[C@H](O[C@H]2[C@@H](O)[C@H](O)[C@@H](CO)O[C@@H]2*)O[C@H](CO)[C@@H](O[C@@H]2O[C@H](CO)[C@H](O)[C@H](O[C@]3(C(=O)O)C[C@H](O)[C@@H](NC(C)=O)[C@H]([C@H](O)[C@H](O)CO)O3)[C@H]2O)[C@@H]1O; X2 = CC(=O)N[C@H]1[C@H](O[C@H]2[C@@H](O)[C@H](O)[C@@H](CO)O[C@@H]2*)O[C@H](CO)[C@@H](O[C@@H]2O[C@H](CO)[C@H](O)[C@H](O)[C@H]2O)[C@@H]1O; GlcNAc(β1-2)αMan = CC(=O)N[C@H]1[C@H](O[C@H]2[C@@H](O)[C@H](O)[C@@H](CO)O[C@@H]2*)O[C@H](CO)[C@@H](O)[C@@H]1O; Hexanoyl(5-oxo) = CC(=O)CCCC(=O)*
Experiments:
[1] = test system: Sambucus racemosa subsp. sieboldiana; experiment: Binding affinity to biotin-labeled Sambucus sieboldiana agglutinin in pH 7.4 Tris buffer by fluorescence microarray method
Homo sapiens [2] = species: Homo sapiens; experiment: Binding affinity to biotin-labeled human recombinant laminin-2 at 10 ug/ml in pH 7.4 Tris buffer by fluorescence microarray method
Triticum aestivum = experiment: Binding affinity to biotin-labeled Wheat germ agglutinin in pH 7.4 Tris buffer by fluorescence microarray method
[3] = molecular target: Lactotransferrin (Homo sapiens) (UniProt P02788); experiment: Binding affinity to biotin-labeled lactoferrin (unknown origin) at 10 ug/ml in pH 7.4 Tris buffer by fluorescence microarray method
[4] = molecular target: Lactotransferrin (Homo sapiens) (UniProt P02788); experiment: Binding affinity to biotin-labeled lactoferrin (unknown origin) at 10 ug/ml in pH 5.6 MES buffer by fluorescence microarray method
[5] = molecular target: Laminin subunit alpha-1 (Homo sapiens) (UniProt P25391); experiment: Binding affinity to biotin-labeled human recombinant laminin-1 at 10 ug/ml in pH 7.4 Tris buffer by fluorescence microarray method
Maackia amurensis = experiment: Binding affinity to biotin-labeled Maackia amurensis agglutinin in pH 7.4 Tris buffer by fluorescence microarray method
Datura stramonium = experiment: Binding affinity to biotin-labeled Datura stramonium agglutinin in pH 7.4 Tris buffer by fluorescence microarray method
[6] = Binding affinity to biotin-labeled Agaricus bisporus agglutinin in pH 7.4 Tris buffer by fluorescence microarray method
Canavalia ensiformis = experiment: Binding affinity to biotin-labeled Canavalia ensiformis agglutinin in pH 7.4 Tris buffer by fluorescence microarray method
Homo sapiens [7] = species: Homo sapiens; experiment: Binding affinity to biotin-labeled human recombinant laminin-2 at 10 ug/ml in 5.6 MES buffer by fluorescence microarray method
Arachis hypogaea = experiment: Binding affinity to biotin-labeled Arachis hypogaea agglutinin in pH 7.4 Tris buffer by fluorescence microarray method
Erythrina crista-galli = experiment: Binding affinity to biotin-labeled Erythrina crista-galli agglutinin in pH 7.4 Tris buffer by fluorescence microarray method
[8] = molecular target: Laminin subunit alpha-1 (Homo sapiens) (UniProt P25391); experiment: Binding affinity to biotin-labeled human recombinant laminin-1 at 10 ug/ml in pH 5.6 MES buffer by fluorescence microarray method

Laminin subunit alpha-1 (Homo sapiens), sequence (P25391 whole entry): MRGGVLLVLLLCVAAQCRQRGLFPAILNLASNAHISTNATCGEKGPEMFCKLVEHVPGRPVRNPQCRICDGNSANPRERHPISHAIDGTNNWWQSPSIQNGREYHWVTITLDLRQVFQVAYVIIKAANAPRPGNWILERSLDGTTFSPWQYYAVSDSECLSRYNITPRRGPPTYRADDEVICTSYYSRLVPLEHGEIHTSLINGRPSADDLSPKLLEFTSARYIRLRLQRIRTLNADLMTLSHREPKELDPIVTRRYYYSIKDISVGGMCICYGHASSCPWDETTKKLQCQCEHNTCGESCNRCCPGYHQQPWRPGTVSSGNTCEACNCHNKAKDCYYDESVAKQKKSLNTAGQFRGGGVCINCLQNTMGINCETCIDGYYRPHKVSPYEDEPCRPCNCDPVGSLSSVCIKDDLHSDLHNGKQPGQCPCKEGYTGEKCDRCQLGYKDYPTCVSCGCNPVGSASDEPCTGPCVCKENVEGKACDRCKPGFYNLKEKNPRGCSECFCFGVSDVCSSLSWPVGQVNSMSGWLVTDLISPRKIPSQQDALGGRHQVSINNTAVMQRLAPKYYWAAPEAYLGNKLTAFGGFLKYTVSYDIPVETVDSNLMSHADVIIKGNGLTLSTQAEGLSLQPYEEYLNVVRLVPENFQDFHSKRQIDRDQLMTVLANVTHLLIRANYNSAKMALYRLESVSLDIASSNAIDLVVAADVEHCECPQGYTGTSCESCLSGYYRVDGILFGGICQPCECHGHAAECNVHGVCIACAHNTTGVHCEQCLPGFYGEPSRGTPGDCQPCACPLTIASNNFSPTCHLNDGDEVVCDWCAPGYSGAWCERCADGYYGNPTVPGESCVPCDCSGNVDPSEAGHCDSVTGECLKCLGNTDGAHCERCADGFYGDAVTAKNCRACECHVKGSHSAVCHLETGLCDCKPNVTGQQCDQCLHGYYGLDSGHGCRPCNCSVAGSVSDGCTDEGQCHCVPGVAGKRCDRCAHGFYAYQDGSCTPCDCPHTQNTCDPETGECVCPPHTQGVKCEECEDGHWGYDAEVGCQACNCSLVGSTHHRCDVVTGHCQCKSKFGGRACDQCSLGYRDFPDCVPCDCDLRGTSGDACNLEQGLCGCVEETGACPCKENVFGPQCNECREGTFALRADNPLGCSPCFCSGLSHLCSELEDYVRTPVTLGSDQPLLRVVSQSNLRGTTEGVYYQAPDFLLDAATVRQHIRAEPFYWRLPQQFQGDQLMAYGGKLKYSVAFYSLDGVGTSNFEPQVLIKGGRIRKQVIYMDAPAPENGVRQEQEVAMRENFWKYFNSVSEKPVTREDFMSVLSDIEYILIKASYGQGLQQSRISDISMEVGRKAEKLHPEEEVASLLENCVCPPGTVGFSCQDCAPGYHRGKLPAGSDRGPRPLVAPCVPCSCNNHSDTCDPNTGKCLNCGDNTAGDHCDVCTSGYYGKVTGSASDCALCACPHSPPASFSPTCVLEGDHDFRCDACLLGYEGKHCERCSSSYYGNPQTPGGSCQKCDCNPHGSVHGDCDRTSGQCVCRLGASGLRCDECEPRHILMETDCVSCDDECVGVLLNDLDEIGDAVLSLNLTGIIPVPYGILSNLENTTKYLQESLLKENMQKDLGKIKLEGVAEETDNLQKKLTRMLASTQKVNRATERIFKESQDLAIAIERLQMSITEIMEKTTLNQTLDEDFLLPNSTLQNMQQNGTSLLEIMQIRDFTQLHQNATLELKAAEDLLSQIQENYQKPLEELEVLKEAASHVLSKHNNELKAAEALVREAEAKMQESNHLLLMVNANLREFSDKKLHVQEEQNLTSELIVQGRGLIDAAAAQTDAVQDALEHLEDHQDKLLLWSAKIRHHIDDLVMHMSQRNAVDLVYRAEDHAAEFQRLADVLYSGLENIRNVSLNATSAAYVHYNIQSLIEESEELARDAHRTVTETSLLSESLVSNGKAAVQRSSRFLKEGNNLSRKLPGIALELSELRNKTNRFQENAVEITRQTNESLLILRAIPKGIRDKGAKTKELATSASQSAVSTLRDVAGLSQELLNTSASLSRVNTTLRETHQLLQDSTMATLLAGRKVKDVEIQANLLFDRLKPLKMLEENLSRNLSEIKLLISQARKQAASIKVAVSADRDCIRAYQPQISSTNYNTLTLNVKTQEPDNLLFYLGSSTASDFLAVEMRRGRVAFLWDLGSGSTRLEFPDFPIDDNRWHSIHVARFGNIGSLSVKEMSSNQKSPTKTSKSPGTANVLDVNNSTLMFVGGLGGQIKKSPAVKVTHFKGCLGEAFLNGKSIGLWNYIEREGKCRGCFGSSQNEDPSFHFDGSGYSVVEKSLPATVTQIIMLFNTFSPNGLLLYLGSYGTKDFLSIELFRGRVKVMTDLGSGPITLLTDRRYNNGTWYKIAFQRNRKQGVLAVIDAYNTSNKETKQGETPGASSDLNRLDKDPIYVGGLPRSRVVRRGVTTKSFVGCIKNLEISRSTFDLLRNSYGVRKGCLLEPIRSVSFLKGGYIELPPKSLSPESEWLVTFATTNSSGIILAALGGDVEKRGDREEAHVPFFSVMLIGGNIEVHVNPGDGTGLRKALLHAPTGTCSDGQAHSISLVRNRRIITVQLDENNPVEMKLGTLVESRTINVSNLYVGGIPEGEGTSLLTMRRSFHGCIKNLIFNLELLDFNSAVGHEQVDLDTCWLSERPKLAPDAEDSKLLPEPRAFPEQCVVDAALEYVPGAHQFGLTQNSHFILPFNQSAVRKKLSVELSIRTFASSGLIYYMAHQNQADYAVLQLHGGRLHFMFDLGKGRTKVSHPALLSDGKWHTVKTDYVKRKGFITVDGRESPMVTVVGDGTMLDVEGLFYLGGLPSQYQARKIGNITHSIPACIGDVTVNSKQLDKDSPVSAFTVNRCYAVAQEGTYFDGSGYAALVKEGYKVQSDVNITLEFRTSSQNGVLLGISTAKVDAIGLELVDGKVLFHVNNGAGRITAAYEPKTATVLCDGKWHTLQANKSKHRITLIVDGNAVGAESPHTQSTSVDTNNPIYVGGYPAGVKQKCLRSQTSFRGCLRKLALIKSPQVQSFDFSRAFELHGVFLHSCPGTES
Lactotransferrin (Homo sapiens), sequence (P02788 whole entry): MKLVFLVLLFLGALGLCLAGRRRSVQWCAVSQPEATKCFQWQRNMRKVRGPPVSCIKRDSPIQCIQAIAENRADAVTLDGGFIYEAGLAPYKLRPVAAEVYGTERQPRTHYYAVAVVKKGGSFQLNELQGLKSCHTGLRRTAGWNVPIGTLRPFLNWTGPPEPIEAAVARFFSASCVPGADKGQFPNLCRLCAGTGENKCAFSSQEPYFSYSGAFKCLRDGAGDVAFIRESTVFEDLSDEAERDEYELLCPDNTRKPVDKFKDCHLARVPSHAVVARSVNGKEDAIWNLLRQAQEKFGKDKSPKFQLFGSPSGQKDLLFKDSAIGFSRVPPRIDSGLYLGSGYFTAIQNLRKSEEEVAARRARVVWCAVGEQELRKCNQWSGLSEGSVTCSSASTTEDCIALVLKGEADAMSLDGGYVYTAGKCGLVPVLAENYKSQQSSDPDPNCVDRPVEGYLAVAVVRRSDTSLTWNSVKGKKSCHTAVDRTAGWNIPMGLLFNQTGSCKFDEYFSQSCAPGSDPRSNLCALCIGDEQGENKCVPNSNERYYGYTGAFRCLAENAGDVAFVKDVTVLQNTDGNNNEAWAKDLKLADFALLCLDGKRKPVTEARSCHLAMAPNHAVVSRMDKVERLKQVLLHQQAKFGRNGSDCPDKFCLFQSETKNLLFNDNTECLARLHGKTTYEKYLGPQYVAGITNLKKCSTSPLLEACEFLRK

| Compound | Activity [1] | Activity (Homo sapiens [2]) | Activity (Triticum aestivum) | Activity [3] | Activity [4] | Activity [5] | Activity (Maackia amurensis) | Activity (Datura stramonium) | Activity [6] | Activity (Canavalia ensiformis) | Activity (Homo sapiens [7]) | Activity (Arachis hypogaea) | Activity (Erythrina crista-galli) | Activity [8] |
| --- | --- | --- | --- | --- | --- | --- | --- | --- | --- | --- | --- | --- | --- | --- |
| CC[C@H](C)[C@H](NC(=O)[C@H](C)NC(=O)CNC(=O)[C@H](CCCNC(=N)N)NC(=O)[C@@H](NC(=O)CCCC(C)=O)[C@@H](C)O)C(=O)N[C@H](C(=O)N[C@@H](CCC(N)=O)C(=O)N[C@H](C(=O)N1CCC[C@H]1C(=O)N[C@H](C(=O)N[C@@H](CC(C)C)C(=O)NCC(=O)N1CCC[C@H]1C(=O)N[C@H](C(=O)N[C@@H](CCC(N)=O)C(=O)N1CCC[C@H]1C(=O)N[C@H](C(=O)N[C@@H](CCCNC(=N)N)C(=O)N[C@H](C(N)=O)C(C)C)[C@@H](C)O)[C@@H](C)CC)[C@@H](C)O)[C@@H](C)O)[C@@H](C)CC ({Hexanoyl(5-oxo)}-TRGAIIQTPTLGPIQPTRV-NH2) | Active | inactive | Active | inactive | Active | Active | inactive | inactive | Active | Active | Active | Active | Active | Active |
| CC[C@H](C)[C@H](NC(=O)[C@H](C)NC(=O)CNC(=O)[C@H](CCCNC(=N)N)NC(=O)[C@@H](NC(=O)CCCC(C)=O)[C@@H](C)O)C(=O)N[C@H](C(=O)N[C@@H](CCC(N)=O)C(=O)N[C@H](C(=O)N1CCC[C@H]1C(=O)N[C@H](C(=O)N[C@@H](CC(C)C)C(=O)NCC(=O)N1CCC[C@H]1C(=O)N[C@H](C(=O)N[C@@H](CCC(N)=O)C(=O)N1CCC[C@H]1C(=O)N[C@H](C(=O)N[C@@H](CCCNC(=N)N)C(=O)N[C@H](C(N)=O)C(C)C)[C@@H](C)O[C@H]1O[C@H](CO)[C@@H](O)[C@H](O)[C@@H]1O[C@@H]1O[C@H](CO)[C@@H](O)[C@H](O)[C@H]1NC(C)=O)[C@@H](C)CC)[C@@H](C)O[C@H]1O[C@H](CO)[C@@H](O)[C@H](O)[C@@H]1O[C@@H]1O[C@H](CO)[C@@H](O[C@@H]2O[C@H](CO)[C@H](O)[C@H](O[C@]3(C(=O)O)C[C@H](O)[C@@H](NC(C)=O)[C@H]([C@H](O)[C@H](O)CO)O3)[C@H]2O)[C@H](O)[C@H]1NC(C)=O)[C@@H](C)O)[C@@H](C)CC ({Hexanoyl(5-oxo)}-TRGAIIQTPT(X1)LGPIQPT(GlcNAc(β1-2)αMan)RV-NH2) | Active | inactive | Active | inactive | Active | Active | inactive | inactive | Active | Active | Active | Active | Active | Active |
| CC[C@H](C)[C@H](NC(=O)[C@H](C)NC(=O)CNC(=O)[C@H](CCCNC(=N)N)NC(=O)[C@@H](NC(=O)CCCC(C)=O)[C@@H](C)O)C(=O)N[C@H](C(=O)N[C@@H](CCC(N)=O)C(=O)N[C@H](C(=O)N1CCC[C@H]1C(=O)N[C@H](C(=O)N[C@@H](CC(C)C)C(=O)NCC(=O)N1CCC[C@H]1C(=O)N[C@H](C(=O)N[C@@H](CCC(N)=O)C(=O)N1CCC[C@H]1C(=O)N[C@H](C(=O)N[C@@H](CCCNC(=N)N)C(=O)N[C@H](C(N)=O)C(C)C)[C@@H](C)O[C@H]1O[C@H](CO)[C@@H](O)[C@H](O)[C@@H]1O[C@@H]1O[C@H](CO)[C@@H](O[C@@H]2O[C@H](CO)[C@H](O)[C@H](O)[C@H]2O)[C@H](O)[C@H]1NC(C)=O)[C@@H](C)CC)[C@@H](C)O[C@H]1O[C@H](CO)[C@@H](O)[C@H](O)[C@@H]1O[C@@H]1O[C@H](CO)[C@@H](O[C@@H]2O[C@H](CO)[C@H](O)[C@H](O)[C@H]2O)[C@H](O)[C@H]1NC(C)=O)[C@@H](C)O[C@H]1O[C@H](CO)[C@@H](O)[C@H](O)[C@@H]1O[C@@H]1O[C@H](CO)[C@@H](O[C@@H]2O[C@H](CO)[C@H](O)[C@H](O)[C@H]2O)[C@H](O)[C@H]1NC(C)=O)[C@@H](C)CC ({Hexanoyl(5-oxo)}-TRGAIIQT(X2)PT(X2)LGPIQPT(X2)RV-NH2) | Active | inactive | Active | inactive | Active | Active | inactive | inactive | Active | Active | Active | Active | Active | Active |
